# Results: patent US9730445B2, “Herbicidal compositions comprising 4-amino-3-chloro-5-fluoro-6-(4-chloro-2-fluoro-3-methoxyphenyl) pyridine-2-carboxylic acid or a derivative thereof and fungicides” (DOW AGROSCIENCES LLC, priority 2013, dated 2017)
# Key:
# IPOHE = test: Postemergence foliar-applied weed control, direct-seeded rice (greenhouse); type: in vivo, Ipomoea hederacea (L.) Jacq. (ivyleaf morningglory)
# Method: (§1) Seeds or nutlets of the desired test plant species were planted in a soil matrix prepared by mixing aloam or sandy loam soil (e.g., 28.6 percent silt, 18.8 percent clay, and 52.6 percent sand, with a pH of about 5.8 and an organic matter content of about 1.8 percent) and calcareous grit in an 80 to 20 ratio. The soil matrix was contained in plastic pots with a volume of 1 quart and a surface area of 83.6 square centimeters (cm^2). […] The plants were grown for 8-22 days in a greenhouse with an approximate 14 hour (h) photoperiod which was maintained at about 29° C. during the day and 26° C. during the night. Nutrients (Peters Excel® 15-5-15 5-Ca 2-Mg and iron chelate) were applied in the irrigation solution as needed and water was added on a regular basis. Supplemental lighting was provided with overhead metal halide 1000-Watt lamps as necessary. The plants were employed for testing when they reached the first through fourth true leaf stage.
# (§2) Treatments consisted of the acid or esters of 4-amino-3-chloro-5-fluoro-6-(4-chloro-2-fluoro-3-methoxy-phenyl)pyridine-2-carboxylic acid (Compound A), each formulated as an SC (suspension concentrate), and various fungicidal components alone and in combination. Forms of compound A were applied on an acid equivalent basis.
# (§3) For treatments comprised of formulated compounds, measured amounts of compounds were placed individually in 25 mL glass vials and diluted in a volume of 1.25% volume per volume (v/v) Agri-Dex® crop oil concentrate to obtain 12× stock solutions. […] Application solutions were prepared by adding an appropriate amount of each stock solution (e.g., 1 mL) and diluted to the appropriate final concentrations with the addition of […] of an aqueous mixture of 1.25% (v/v) crop oil concentrate so that the final spray solutions contained 1.25+/−0.05% (v/v) crop oil concentrate.
# (§4) For treatments comprised of technical compounds, weighed amounts can be placed individually in 25 mL glass vials and dissolved in a volume of 97:3 volume per volume (v/v) acetone/dimethyl sulfoxide (DMSO) to obtain 12× stock solutions. […] When technical materials are used, the concentrated stock solutions can be added to the spray solutions so that the final acetone and DMSO concentrations of the application solutions are 16.2% and 0.5%, respectively.
# (§5) As required, additional water and/or 97:3 v/v acetone/DMSO was added to individual application solutions so that the final acetone and DMSO concentrations of the application solutions being compared were 8.1% and 0.25%, respectively
# (§6) All stock solutions and applications solutions were visually inspected for compound compatibility prior to application. Spray solutions were applied to the plant material with an overhead Mandel track sprayer equipped with 8002E nozzles calibrated to deliver 187 L/ha over an application area of 0.503 square meters (m^2) at a spray height of 18 to 20 inches (46 to 50 cm) above average plant canopy height. Control plants were sprayed in the same manner with the solvent blank.
# (§7) The treated plants and control plants were placed in a greenhouse as described above and watered by sub-irrigation to prevent wash-off of the test compounds. After approximately 3 weeks, the condition of the test plants as compared with that of the untreated plants was determined visually and scored on a scale of 0 to 100 percent where 0 corresponds to no injury or growth inhibition and 100 corresponds to complete kill.
# (§8) Colby's equation was used to determine the herbicidal effects expected from the mixtures (Colby, S. R. Calculation of the synergistic and antagonistic response of herbicide combinations. Weeds 1967, 15, 20-22.).
# (§9) The following equation was used to calculate the expected activity of mixtures containing two active ingredients, A and B: Expected=A+B−(A×B/100)
# BRAPP = test: as above; type: in vivo; conditions: 22 DAA, r38-40 ester 8/16/32 g ae/ha alone, r41-42 azoxystrobin 125/250 g ai/ha alone, r43-48 ester 8/16/32 at each of 125, 250
# Description: (§10) Seeds or nutlets of the desired test plant species were planted in a soil matrix prepared by mixing aloam or sandy loam soil (e.g., 28.6 percent silt, 18.8 percent clay, and 52.6 percent sand, with a pH of about 5.8 and an organic matter content of about 1.8 percent) and calcareous grit in an 80 to 20 ratio. The soil matrix was contained in plastic pots with a volume of 1 quart and a surface area of 83.6 square centimeters (cm^2). When required to ensure good germination and healthy plants, a fungicide treatment and/or other chemical or physical treatment was applied. The plants were grown for 8-22 days in a greenhouse with an approximate 14 hour (h) photoperiod which was maintained at about 29° C. during the day and 26° C. during the night. Nutrients (Peters Excel® 15-5-15 5-Ca 2-Mg and iron chelate) were applied in the irrigation solution as needed and water was added on a regular basis. Supplemental lighting was provided with overhead metal halide 1000-Watt lamps as necessary. The plants were employed for testing when they reached the first through fourth true leaf stage.
# as §2
# (§11) Treatment requirements were calculated based upon the rates being tested, the concentration of active ingredient or acid equivalent in the formulation and a 12 milliliter (mL) application volume at a rate of 187 liters per hectare (L/ha).
# as §3, §4, §5, §6
# as §7, with “kill. […]” for “kill.”
# DIGSA = test: as above; type: in vivo, Digitaria sanguinalis (L.) Scop. (large crabgrass); conditions: 21 DAA
# Description: as §10, §2, §11, §3, §4, §5, §6
# as §7, with “kill. […]” for “kill.”
# CYPIR = test: as above; type: in vivo, Cyperus iria L. (rice flatsedge); conditions: 22 DAA, r22-23 ester 16/32 g ae/ha alone, r24-26 azoxystrobin 62.5/125/250 g ai/ha alone, r27-32 ester 16/32 at each of 62.5, 125, 250
# Method: as §1, §2, §3, §4, §5, §6, §7, §8, §9
# ECHCO = test: as above; type: in vivo, Echinochloa colonum (L.) LINK (junglerice); conditions: 19 DAA, r9-11 ester 8/16/32 g ae/ha alone
# Description: as §10, §2, §11, §3, §4, §5, §6
# as §7, with “kill. […]” for “kill.”
# CYPRO = test: In-water applied weed control, transplanted paddy rice (greenhouse); type: in vivo, Cyperus rotundus L. (purple nutsedge); conditions: 22 DAA
# Method: Weed seeds or nutlets of the desired test plant species were planted in puddled soil (mud) prepared by mixing a shredded, non-sterilized mineral soil (50.5 percent silt, 25.5 percent clay, and 24 percent sand, with a pH of about 7.6 and an organic matter content of about 2.9 percent) and water at a 1:1 volumetric ratio. The prepared mud was dispensed in 365 mL aliquots into 16-ounce (oz.) non-perforated plastic pots with a surface area of 86.59 square centimeters (cm^2) leaving a headspace of 3 centimeters (cm) in each pot. Rice seeds were planted in Sun Gro MetroMix® 306 planting mixture, which typically has a pH of 6.0 to 6.8 and an organic matter content of about 30 percent, in plastic plug trays. Seedlings at the second or third leaf stage of growth were transplanted into 860 mL of mud contained in 32-oz. non-perforated plastic pots with a surface area of 86.59 cm^2 4 days prior to herbicide application. The paddy was created by filling the headspace of the pots with 2.5 to 3 cm of water. When required to ensure good germination and healthy plants, a fungicide treatment and/or other chemical or physical treatment was applied. The plants were grown for 4-22 days in a greenhouse with an approximate 14 hour (h) photoperiod which was maintained at about 29° C. during the day and about 26° C. during the night. Nutrients were added as Osmocote® (17:6:10, N:P:K+minor nutrients) at 2 g per cup. Water was added on a regular basis to maintain the paddy flood, and supplemental lighting was provided with overhead metal halide 1000-Watt lamps as necessary. The plants were employed for testing when they reached the first through fourth true leaf stage.
# as §2, with “(compound A)” for “(Compound A),”, “concentrate)” for “concentrate),”
# Treatment requirements for each compound or fungicidal component were calculated based upon the rates being tested, the concentration of active ingredient or acid equivalent in the formulation, an application volume of 2 mL per component per pot, and an application area of 86.59 cm^2 per pot.
# For formulated compounds, a measured amount was placed in an individual 100 or 200 mL glass vial and was dissolved in a volume of 1.25% (v/v) Agri-Dex® crop oil concentrate to obtain application solutions.
# For technical grade compounds, a weighed amount was placed in an individual 100 to 200 mL glass vial and dissolved in a volume of acetone to obtain concentrated stock solutions.
# Applications were made by injecting with a pipetter appropriate amounts of the application solutions, individually and sequentially, into the aqueous layer of the paddy. Control plants were treated in the same manner with the solvent blank. Applications were made so that all treated plant material received the same concentrations of acetone and crop oil concentrate.
# as §7, with “water was added as needed” for “watered by sub-irrigation”, “maintain a paddy flood.” for “prevent wash-off of the test compounds.”, “weeks” for “weeks,”
# as §8, §9
# LEFCH = test: Postemergence foliar-applied weed control, direct-seeded rice (greenhouse); type: in vivo, Leptochloa chinensis (L.) Nees (Chinese sprangletop)
# Method: as §1, §2, §3, §4, §5, §6, §7, §8, §9
# ECHCG = test: as above; type: in vivo, Echinochloa crus-galli (L.) P. Beauv. (barnyardgrass); conditions: r10-11 ester 8/16 g ae/ha alone, r12-14 phthalide 100/200/300 g ai/ha alone, r15-20 ester 8/16 at each of 100, 200, 300
# Method: as §1, §2, §3, §4, §5, §6, §7, §8, §9
# [1] = r9-11 acid 5.3/10.6/21.2 g ae/ha alone, r12 azoxystrobin 250 g ai/ha alone, r13-15 acid 5.3/10.6/21.2 + 250
# [2] = r10-12 ester 4.38/8.75/17.5 g ae/ha alone, r13 azoxystrobin 250 g ai/ha alone, r14-16 ester 4.38/8.75/17.5 + 250
# [3] = r9-11 acid 5.3/10.6/21.2 g ae/ha alone, r12 myclobutanil 250 g ai/ha alone, r13-15 acid 5.3/10.6/21.2 + 250
compound,measurement,setting,value
"CO/C=C(/C(=O)OC)c1ccccc1Oc1cc(Oc2ccccc2C#N)ncn1 [Azoxystrobin, methyl (2E)-2-{2-[6-(2-cyanophenoxy)pyrimidin-4-yloxy]phenyl}3-methoxyacrylate, reference compound]",Visual Weed Control (%) - 21 DAA IPOHE Obs,IPOHE; [1],0%
same,Visual Weed Control (%) - 21 DAA IPOHE Obs,IPOHE; [2],0%
same,Visual Weed Control (%) - 22 DAA BRAPP Obs,BRAPP,0%
same,Visual Weed Control (%) - 21 DAA DIGSA Obs,DIGSA; [1],0%
same,Visual Weed Control (%) - 21 DAA DIGSA Obs,DIGSA; [2],0%
same,Visual Weed Control (%) - 22 DAA CYPIR Obs,CYPIR,0%
"COC(=O)Nc1nc2ccccc2[nH]1 [Carbendazim, methyl benzimidazol-2-ylcarbamate, reference compound]",Visual Weed Control (%) - 19 DAA ECHCO Obs,"ECHCO; r12-13 carbendazim 125/250 g ai/ha alone, r14-19 ester 8/16/32 at each of 125, 250",0%
"COc1c(Cl)ccc(-c2nc(C(=O)O)c(Cl)c(N)c2F)c1F [Compound A Acid, 4-amino-3-chloro-5-fluoro-6-(4-chloro-2-fluoro-3-methoxy-phenyl)pyridine-2-carboxylic acid]",Visual Weed Control (%) - 22 DAA CYPRO Obs,CYPRO; Compound A Acid 10.6 g ae/ha,0%
same,Visual Weed Control (%) - 22 DAA CYPRO Obs,CYPRO; Compound A Acid 21.2 g ae/ha,25%
same,Visual Weed Control (%) - 22 DAA CYPRO Obs,CYPRO; Compound A Acid 42.4 g ae/ha,95%
"CC(C)Oc1cccc(NC(=O)c2ccccc2C(F)(F)F)c1 [Flutolanil, α,α,α-trifluoro-3′-isopropoxy-o-toluanilide, reference compound]",Visual Weed Control (%) - 19 DAA LEFCH Obs,"LEFCH; 19 DAA, r9-11 ester 8/16/32 g ae/ha alone, r12-13 flutolanil 280/560 g ai/ha alone, r14-19 ester 8/16/32 at each of 280, 560",0%
same,Visual Weed Control (%) - 19 DAA ECHCO Obs,"ECHCO; r12-13 flutolanil 280/560 g ai/ha alone, r14-19 ester 8/16/32 at each of 280, 560",0%
"CCCCC(C#N)(Cn1cncn1)c1ccc(Cl)cc1 (stereo not drawn) [Myclobutanil, 2-p-chlorophenyl-2-(1H-1,2,4-triazol-1-ylmethyl)hexanenitrile, reference compound]",Visual Weed Control (%) - 21 DAA IPOHE Obs,IPOHE; [3],10%
same,Visual Weed Control (%) - 21 DAA LEFCH Obs,LEFCH; [3],0%
"O=C1OCc2c(Cl)c(Cl)c(Cl)c(Cl)c21 [Phthalide, 4,5,6,7-tetrachlorophthalide]",Visual Weed Control (%) - 21 DAA ECHCG Obs,ECHCG,0%
"CCCC1COC(Cn2cncn2)(c2ccc(Cl)cc2Cl)O1 (stereo not drawn) [Propiconazole, 1-[2-(2,4-dichlorophenyl)-4-propyl-1,3-dioxolan-2-ylmethyl]-1H-1,2,4-triazole, reference compound]",Visual Weed Control (%) - 21 DAA DIGSA Obs,"DIGSA; r9-11 acid 5.3/10.6/21.2 g ae/ha alone, r12 propiconazole 190 g ai/ha alone, r13-15 acid 5.3/10.6/21.2 + 190",0%
"manganese ethylenebis(dithiocarbamate) (polymeric) complex with zinc salt [Mancozeb, reference compound]",Visual Weed Control (%) - 21 DAA IPOHE Obs,"IPOHE; r20-22 ester 8/16/32 g ae/ha alone, r23 mancozeb 1680 g ai/ha alone, r24-26 ester 8/16/32 + 1680",0%
same,Visual Weed Control (%) - 21 DAA LEFCH Obs,"LEFCH; r10-11 ester 16/32 g ae/ha alone, r12 mancozeb 840 g ai/ha alone, r13-14 ester 16/32 + 840",0%
